From PMC7618719, “Generation of T cells with reduced off-target cross-reactivities by engineering co-signalling receptors” (Nature Biomedical Engineering, 2026)

Tested on: Lck
Assay: Lck chemical inhibition assay, CD69 on A-770041-treated c259 TCR-T cells
Assay type: cell-based, human
Conditions: c259 TCR-T cells treated 1 h with A-770041, U87 with NY-ESO-1 peptides, 4 h, CD69 and TNFα
Method: U87 cells (50,000) in 100 μl of DMEM were seeded per well in a 96-well flat-bottom plate and incubated overnight. T cells were treated with the appropriate concentration of A-770041 for 1 h. The DMEM media were discarded and 50,000 A-770041-treated T cells were added to each well in 200 μl of RPMI media. Cells were incubated for 4 h at 37 ^∘C and 5% CO2.
Cells were stained for 20 min at 4 ^∘C, washed with PBS and analysed using a BD X-20 or a Cytoflex LX flow cytometer (Beckman Couter). Data were analysed using FlowJo v.10, RRID:SCR008520 (BD Biosciences) and GraphPad Prism, RRID:SCR002798 (GraphPad Software).

COc1cc(-c2nn([C@H]3CC[C@H](N4CCN(C(C)=O)CC4)CC3)c3ncnc(N)c23)ccc1NC(=O)c1cc2ccccc2n1C [A-770041]
effect of Lck inhibition on T cell ligand discrimination: increases T cell ligand discrimination
